Assay results taken from ChEMBL document CHEMBL5506073, “Discovery of Novel Ortho-Aminophenol Derivatives Targeting Lipid Peroxidation with Potent Antiferroptotic Activities” (J Med Chem, 2024).
Active and inactive are the calls of the source. The rule behind the calls is not given here.

Legend:
HT-1080 [1] = test: Inhibition of RSL3-induced ferroptosis in human HT-1080 cells assessed as cell viability incubated for 24 hrs by CCK8 assay; type: functional, cell-based; conditions: for EC50: HT-1080, 24 h
Mus musculus [2] = test: Protection against APAP-induced acute liver injury in overnight fasted C57BL/6 mouse model assessed as normal pathology of liver at 10 mg/kg, ip administered 1 hr prior to APAP treatment measured after 12 hrs post-APAP treatment under continuous fasting condition by H and E staining based analysis; type: functional, organism-based; conditions: time 13.0 hrs
SW480 [3] = test: Inhibition of RSL3-induced ferroptosis in human SW480 cells assessed as cell viability at 200 nM incubated for 24 hrs by CCK8 assay; type: functional, cell-based
Mus musculus [4] = test: Protection against APAP-induced acute liver injury in overnight fasted C57BL/6 mouse model assessed as reduction in 4-HNE formation in liver at 10 mg/kg, ip administered 1 hr prior to APAP treatment measured after 12 hrs post-APAP treatment under continuous fasting condition by IHC analysis; type: functional, organism-based; conditions: time 13.0 hrs
KHOS/NP [5] = test: Inhibition of FIN56-induced ferroptosis in human KHOS/NP cells assessed as cell viability at 200 nM incubated for 24 hrs by CCK8 assay; type: functional, cell-based
Mus musculus [6] = test: Protection against APAP-induced acute liver injury in overnight fasted C57BL/6 mouse model assessed as reversal of native liver architecture at 10 mg/kg, ip administered 1 hr prior to APAP treatment measured after 12 hrs post-APAP treatment under continuous fasting condition by H and E staining based analysis; type: functional, organism-based; conditions: time 13.0 hrs
HK-2 [7] = test: Inhibition of RSL3-induced ferroptosis in human HK-2 cells assessed as cell viability at 200 nM incubated for 24 hrs by CCK8 assay; type: functional, cell-based
HT-1080 [8] = test: Inhibition of RSL3-induced lipid peroxidation in human HT-1080 cells assessed as reduction in MDA adduct accumulation by ELISA; type: functional, cell-based
HT-1080 [9] = test: Inhibition of FIN56-induced ferroptosis in human HT-1080 cells assessed as cell viability at 200 nM incubated for 24 hrs by CCK8 assay; type: functional, cell-based
Mus musculus [10] = test: Protection against APAP-induced acute liver injury in overnight fasted C57BL/6 mouse model assessed as decrease in plasma AST level at 10 mg/kg, ip administered 1 hr prior to APAP treatment measured after 12 hrs post-APAP treatment under continuous fasting condition; type: functional, organism-based; conditions: time 13.0 hrs
HT-1080 [11] = test: Inhibition of ferroptosis in human HT-1080 cells assessed as reversal of RSL3-induced membrane rupture; type: functional, cell-based
Mus musculus [12] = test: Protection against APAP-induced acute liver injury in overnight fasted C57BL/6 mouse model assessed as decrease in plasma ALT level at 10 mg/kg, ip administered 1 hr prior to APAP treatment measured after 12 hrs post-APAP treatment under continuous fasting condition; type: functional, organism-based; conditions: time 13.0 hrs
HT-1080 [13] = test: Inhibition of ferroptosis in human HT-1080 cells assessed as reversal of RSL3-induced swelling; type: functional, cell-based
Mus musculus [14] = test: Protection against kidney ischemia-reperfusion injury in C57BL/6 mouse model assessed as decrease in cytoplasmic vacuoles in kidney at 10 mg/kg, ip administered twice 1 hr prior to ischemia onset measured after 24 hrs post-ischemia by H and E staining based analysis; type: functional, organism-based; conditions: time 25.0 hrs
HK-2 [15] = test: Inhibition of FIN56-induced ferroptosis in human HK-2 cells assessed as cell viability at 200 nM incubated for 24 hrs by CCK8 assay; type: functional, cell-based
HKC [16] = test: Inhibition of FIN56-induced ferroptosis in human HKC cells assessed as cell viability at 200 nM incubated for 24 hrs by CCK8 assay; type: functional, cell-based
HT-1080 [17] = test: Effect on glutathione metabolic pathway in human HT-1080 cells assessed as change in GPX4 mRNA level by qRT-PCR analysis; type: functional, cell-based
SW480 [18] = test: Inhibition of FIN56-induced ferroptosis in human SW480 cells assessed as cell viability at 200 nM incubated for 24 hrs by CCK8 assay; type: functional, cell-based
Mus musculus [19] = test: Protection against kidney ischemia-reperfusion injury in C57BL/6 mouse model assessed as decrease in renal tubule dilation at 10 mg/kg, ip administered twice 1 hr prior to ischemia onset measured after 24 hrs post-ischemia by H and E staining based analysis; type: functional, organism-based; conditions: time 25.0 hrs
HT-1080 [20] = test: Inhibition of RSL3-induced ferroptosis in human HT-1080 cells assessed as cell viability at 200 nM incubated for 24 hrs by CCK8 assay; type: functional, cell-based
HT-1080 [21] = test: Inhibition of RSL3-induced lipid peroxidation in human HT-1080 cells assessed as reduction in green fluorescence by C11-BODIPY581/591 probe based analysis; type: functional, cell-based
Mus musculus [22] = test: Protection against kidney ischemia-reperfusion injury in C57BL/6 mouse model assessed as decrease in KIM-1 level in kidney at 10 mg/kg, ip administered twice 1 hr prior to ischemia onset measured after 24 hrs post-ischemia by IHC analysis; type: functional, organism-based; conditions: time 25.0 hrs
HTR-8/SVneo [23] = test: Inhibition of RSL3-induced ferroptosis in human HTR-8/SVneo cells assessed as cell viability at 200 nM incubated for 24 hrs by CCK8 assay; type: functional, cell-based
HT-1080 [24] = test: Effect on iron metabolism in human HT-1080 cells assessed as change in FTH1 mRNA level by qRT-PCR analysis; type: functional, cell-based
HT-1080 [25] = test: Effect on glutathione metabolic pathway in human HT-1080 cells assessed as change in SLC7A11 mRNA level by qRT-PCR analysis; type: functional, cell-based
Mus musculus [26] = test: Protection against kidney ischemia-reperfusion injury in C57BL/6 mouse model assessed as decrease in serum creatinine level at 10 mg/kg, ip administered twice 1 hr prior to ischemia onset measured after 24 hrs post-ischemia; type: functional, organism-based; conditions: time 25.0 hrs
Mus musculus [27] = test: Protection against kidney ischemia-reperfusion injury in C57BL/6 mouse model assessed as decrease in brush edges loss in kidney at 10 mg/kg, ip administered twice 1 hr prior to ischemia onset measured after 24 hrs post-ischemia by H and E staining based analysis; type: functional, organism-based; conditions: time 25.0 hrs
HT-1080 [28] = test: Effect on lipid metabolism in human HT-1080 cells assessed as change in ACSL4 mRNA level by qRT-PCR analysis; type: functional, cell-based
HT-1080 [29] = test: Effect on iron metabolism in human HT-1080 cells assessed as change in DMT1 mRNA level by qRT-PCR analysis; type: functional, cell-based
HKC [30] = test: Inhibition of RSL3-induced ferroptosis in human HKC cells assessed as cell viability at 200 nM incubated for 24 hrs by CCK8 assay; type: functional, cell-based
HTR-8/SVneo [31] = test: Inhibition of FIN56-induced ferroptosis in human HTR-8/SVneo cells assessed as cell viability at 200 nM incubated for 24 hrs by CCK8 assay; type: functional, cell-based
HT-1080 [32] = test: Inhibition of ferroptosis in human HT-1080 cells assessed as reversal of RSL3-induced normal morphological loss; type: functional, cell-based
HT-1080 [33] = test: Effect on lipid metabolism in human HT-1080 cells assessed as change in ALOX15 mRNA level by qRT-PCR analysis; type: functional, cell-based
HT-1080 [34] = test: Effect on iron metabolism in human HT-1080 cells assessed as change in TFRC mRNA level by qRT-PCR analysis; type: functional, cell-based
Mus musculus [35] = test: Protection against APAP-induced acute liver injury in overnight fasted C57BL/6 mouse model assessed as reduction in necrotic areas of liver at 10 mg/kg, ip administered 1 hr prior to APAP treatment measured after 12 hrs post-APAP treatment under continuous fasting condition by H and E staining based analysis; type: functional, organism-based; conditions: time 13.0 hrs
[36] = Antioxidant activity assessed as DPPH radical scavenging activity at 20 uM incubated for 30 mins by absorbance based assay; type: functional
HT-1080 [37] = test: Inhibition of ferroptosis in human HT-1080 cells assessed as reversal of RSL3-induced cell shrinkage; type: functional, cell-based
HT-1080 [38] = test: Effect on lipid metabolism in human HT-1080 cells assessed as change in COX2 mRNA level by qRT-PCR analysis; type: functional, cell-based
KHOS/NP [39] = test: Inhibition of RSL3-induced ferroptosis in human KHOS/NP cells assessed as cell viability at 200 nM incubated for 24 hrs by CCK8 assay; type: functional, cell-based
Mus musculus [40] = test: Protection against kidney ischemia-reperfusion injury in C57BL/6 mouse model assessed as decrease in BUN level at 10 mg/kg, ip administered twice 1 hr prior to ischemia onset measured after 24 hrs post-ischemia; type: functional, organism-based; conditions: time 25.0 hrs
HT-1080 [41] = test: Inhibition of RSL3-induced ferroptosis in human HT-1080 cells assessed as cell viability at 0.5 uM incubated for 24 hrs by CCK8 assay; type: functional, cell-based
[42] = Antioxidant activity assessed as DPPH radical scavenging activity at 10 uM incubated for 30 mins by absorbance based assay; type: functional

COC(=O)c1cccc(O)c1N
inhibition (HT-1080 [1]): Dose-Dependent Effect
EC50 (HT-1080 [1]): 526 nM

Nc1c(O)cccc1-c1nnc(SCC(=O)O)o1
EC50 (HT-1080 [1]): > 1000 nM

CCOC(=O)c1ccc(NC2CCCCC2)c(N)c1
EC50 (HT-1080 [1]): 203 nM

Nc1c(O)cccc1-c1nc2ccccc2[nH]1
EC50 (HT-1080 [1]): 263 nM

Cc1ccc(CSc2nnc(-c3cccc(O)c3N)o2)cc1
Activity (Mus musculus [2]): Active
inhibition (SW480 [3]): Active
Activity (Mus musculus [4]): Active
inhibition (KHOS/NP [5]): Active
Activity (Mus musculus [6]): Active
inhibition (HK-2 [7]): Active
inhibition (HT-1080 [8]): Active
inhibition (HT-1080 [9]): Active
Activity (Mus musculus [10]): Active
inhibition (HT-1080 [11]): Active
Activity (Mus musculus [12]): Active
inhibition (HT-1080 [13]): Active
Activity (Mus musculus [14]): Active
EC50 (HT-1080 [1]): 46 nM
inhibition (HK-2 [15]): Active
inhibition (HKC [16]): Active
Activity (HT-1080 [17]): inactive
inhibition (SW480 [18]): Active
Activity (Mus musculus [19]): Active
inhibition (HT-1080 [20]): Active
inhibition (HT-1080 [21]): Active
Activity (Mus musculus [22]): Active
inhibition (HTR-8/SVneo [23]): Active
Activity (HT-1080 [24]): inactive
Activity (HT-1080 [25]): inactive
Activity (Mus musculus [26]): Active
Activity (Mus musculus [27]): Active
Activity (HT-1080 [28]): inactive
Activity (HT-1080 [29]): inactive
inhibition (HKC [30]): Active
inhibition (HTR-8/SVneo [31]): Active
inhibition (HT-1080 [32]): Active
Activity (HT-1080 [33]): inactive
Activity (HT-1080 [34]): inactive
Activity (Mus musculus [35]): Active
Activity [36]: Active
inhibition (HT-1080 [37]): Active
Activity (HT-1080 [38]): inactive
inhibition (KHOS/NP [39]): Active
Activity (Mus musculus [40]): Active

NNC(=O)c1cccc(O)c1N
EC50 (HT-1080 [1]): > 1000 nM

CC(C)OC(=O)c1cccc(O)c1N
inhibition (HT-1080 [41]): Active
Activity [42]: Active
EC50 (HT-1080 [1]): 388 nM

CSc1nnc(-c2cccc(O)c2N)o1
EC50 (HT-1080 [1]): 99.2 nM

CCOC(=O)c1cccc(O)c1N
inhibition (HT-1080 [1]): Dose-Dependent Effect
EC50 (HT-1080 [1]): 127 nM

Nc1c(O)cccc1-c1nnc(SCc2ccccc2)o1
EC50 (HT-1080 [1]): 238 nM

Nc1c(O)cccc1-c1nnc(S)o1
EC50 (HT-1080 [1]): 366 nM

Nc1c(O)cccc1C(=O)N/N=C/c1ccccn1
EC50 (HT-1080 [1]): 191 nM

Nc1c(O)cccc1-c1nnc(SCc2ccc(F)cc2)o1
EC50 (HT-1080 [1]): 348 nM

Cn1c(-c2cccc(O)c2N)nc2ccccc21
EC50 (HT-1080 [1]): 237 nM

N#Cc1cccc(/C=N/NC(=O)c2cccc(O)c2N)c1
EC50 (HT-1080 [1]): 727 nM

Cc1ccc(/C=N/NC(=O)c2cccc(O)c2N)cc1
EC50 (HT-1080 [1]): 2620 nM

Nc1c(O)cccc1C(=O)N/N=C/c1ccc(C(=O)O)cc1
EC50 (HT-1080 [1]): > 1000 nM

Nc1c(O)cccc1-c1nnc(SCc2ccc([N+](=O)[O-])cc2)o1
EC50 (HT-1080 [1]): 871 nM

Nc1c(O)cccc1-c1nc2cc(Cl)c(Cl)cc2[nH]1
EC50 (HT-1080 [1]): 293 nM

Nc1c(O)cccc1C(=O)N/N=C/c1ccc([N+](=O)[O-])cc1
EC50 (HT-1080 [1]): 649 nM

Nc1c(O)cccc1-c1nnc(SCc2ccc3ccccc3c2)o1
EC50 (HT-1080 [1]): 603 nM

COc1ccc(CSc2nnc(-c3cccc(O)c3N)o2)cc1
EC50 (HT-1080 [1]): 177 nM

N#Cc1ccc(CSc2nnc(-c3cccc(O)c3N)o2)cc1
EC50 (HT-1080 [1]): 528 nM

CCCCOC(=O)c1cccc(O)c1N
inhibition (HT-1080 [41]): Active
Activity [42]: Active
EC50 (HT-1080 [1]): 385 nM

Nc1c(O)cccc1C(=O)N/N=C/c1ccccc1
EC50 (HT-1080 [1]): 274 nM

Nc1c(O)cccc1C(=O)N/N=C/c1ccc[nH]1
EC50 (HT-1080 [1]): 343 nM

CCCOC(=O)c1cccc(O)c1N
inhibition (HT-1080 [41]): Active
Activity [42]: Active
EC50 (HT-1080 [1]): 302 nM
